Experimental data reported in PubChem BioAssay (NCI).
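Where inhibition never reached the appropriate level, the endpoint shown equals the highest concentration tested. Otherwise, values were interpolated linearly from a five-concentration, 48-hour dose response in 96-well plates. GI50 marks 50% less growth. The concentration for full growth arrest is given as TGI.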

tested on: ACHN renal; assay: NCI anticancer screen, dose series, 48 h

SMILES | TGI | GI50
COC(=O)C(=O)C(C(=O)C(=O)Nc1ccccc1C(N)=O)c1nc2ccc(Cl)cc2[nH]c1=O (centres undefined) | > 100 µM | 
NC(CC(=O)OCc1ccccc1)C(=O)OCc1ccccc1 (centres undefined) | > 100 µM | 
CCC#CC[C@H]1C/C=C2/C(=O)C=C[C@@H]2C/C=C\CCCC(=O)O1 | 1.56 µM | 0.763 µM
CCN(CC)CCN1CC(O)=C(c2nc(-c3ccc(Cl)cc3)cs2)C1=N | 12 µM | 3.14 µM
Cc1cn2c(/C=C3/C(=O)N(C)c4ccccc43)c(C)nc2s1 | > 100 µM | 25.9 µM

tested on: MDA-MB-231 breast; assay: NCI anticancer screen, dose series, 48 h

SMILES | TGI | GI50
O=C1NC(=O)c2ccc([N+](=O)[O-])c3cccc1c23 | 34.5 µM | 
CN(C)CCCn1c2c(c3ccccc3c1=O)C(=O)c1ccccc1-2 | 5.09 µM | 1.74 µM
CN(C)CCNC(=O)c1cccc(C(=O)Nc2ccccc2)c1[N+](=O)[O-] | > 100 µM | 
NC(N)=NCCCn1c2c(c3ccccc3c1=O)C(=O)c1ccccc1-2 | 46.7 µM | 15.8 µM
CC(=O)OC1Oc2ccccc2-c2oc(=O)c(-c3cc4ccc(N(C)C)cc4oc3=O)cc21 (centres undefined) | 32.1 µM | 13 µM
CC1(C)C2CC(O)C1(C)CC2=O (centres undefined) | > 100 µM | 
COc1ccc2c(c1)C(=O)c1c-2n(CCCn2ccnc2)c(=O)c2ccccc12 | > 79.1 µM | 3.79 µM
COc1cc2oc(-c3ccc(O)cc3)cc(=O)c2c(OC)c1OC | > 100 µM | 
O=C(CCl)Nc1ccc(Cl)cc1 | 25.9 µM | 5.24 µM
O=S(=O)(/N=S(/Nc1ccccc1)C(Cl)Cl)c1ccccc1 (centres undefined) | > 100 µM | 
Fc1cc(F)c(COc2cc(Cn3cnc4c(Cl)nc(Cl)nc43)ccc2C23CC4CC(CC(C4)C2)C3)cc1F | 32.7 µM | 17.5 µM
COc1ccc(N2C(=O)C3c4[nH]c5ccc(C)cc5c4C4CCC(C(C)(C)C)CC4C3C2=O)cc1 (centres undefined) | > 100 µM | 
CC/C=C\C[C@@H]1C/C=C2/C(=O)C=C[C@H]2C/C=C\CCCC(=O)O1 | 6.59 µM | 1.56 µM
NC(=S)N/N=C/c1ccc(OC(=O)COc2ccc(Cl)cc2)cn1 | > 100 µM | 6.61 µM
O=C(N/N=C/c1cccc(O)c1O)c1ccccc1 | > 100 µM | 0.495 µM
c1ccc(C2=NNC3c4ccccc4-c4ccccc4N3C2)cc1 (centres undefined) | > 100 µM | 
COc1ccc(OC)c(/C=C/C(=O)N/N=C/c2ccc(Cl)cc2)c1 | > 100 µM | 0.531 µM
O=C1c2ccccc2-c2c1c1ccccc1c(=O)n2Cc1ccccc1 | > 100 µM | 

SMILES | TGI | GI50
COc1ccc(C(=O)c2cc(C)c(OC)c(C)c2)c(OC)c1N(C(=O)C(Cl)Cl)C(=O)C(Cl)Cl | > 100 µM | 0.107 µM
CCN(CC)c1sc(N(CC)CC)c2c1SSSSS2 | 2.41 µM | 0.894 µM
O=C(c1cccc(O)c1O)c1cn(Cc2ccc(F)cc2)c2cccc(O)c12 | 40.2 µM | 5.83 µM
Nc1ncc(-c2cnn(CCO)c2)c2scc(-c3ccc(NC(=O)Nc4cccc(F)c4)cc3)c12 | 2.91 µM | 1.14 µM
COc1cc(C2=NN(C(C)=O)C(c3ccc(OC(C)=O)cc3OC(C)=O)O2)c(OC(C)=O)c2ccccc12 (centres undefined) | > 56.4 µM | 0.543 µM
COC(=O)Nc1nc2ccc(Oc3ccc(NC(=O)Nc4ccccc4)cc3)cc2[nH]1 | 10.3 µM | 0.32 µM
O=C1c2c(Br)sc(Br)c2C(NC(=O)C(F)(F)F)C1O (centres undefined) | 38.5 µM | 
CCOC(=O)c1cc(/C(=N\O)c2cc(OC)c(OC)c(OC)c2)n2cc(C)cc(C)c12 | 5.7 µM | 2.34 µM
CCN(CC)CCCC(C)Nc1c(C)cnc2cc(Cl)c(C)cc12 (centres undefined) | 10.4 µM | 2.71 µM
CC(=O)OC1CC(O)C23COC(O)C1(C)C2CC(O)C1(C)C3C(=O)C(O)C2(C)C(c3ccoc3)CC3OC321 (centres undefined) | > 100 µM | > 28.7 µM
CCCCCCCC(CC(=O)NC(CO)C(=O)NC(CO)CC(C)C)OC(=O)CC(CCCCCCC)OC(=O)CC(CCCCCCC)OC1OC(C)C(O)C(OC2OC(C)C(O)C(OC(C)=O)C2O)C1O (centres undefined) | 23.4 µM | 
O=C(CP(=O)(c1ccccc1)c1ccccc1)c1cccc(C(=O)CP(=O)(c2ccccc2)c2ccccc2)c1 | > 100 µM | 
CCc1[nH]c(=O)nc(N)c1-c1ccc(N2CCCCC2)c([N+](=O)[O-])c1 | > 100 µM | 
COC(=O)C(=O)C(C(=O)C(=O)Nc1ccccc1C(N)=O)c1nc2ccc(Cl)cc2[nH]c1=O (centres undefined) | > 100 µM | 
CCC#CC[C@H]1C/C=C2/C(=O)C=C[C@@H]2C/C=C\CCCC(=O)O1 | 9.28 µM | 1.85 µM
CCN(CC)CCN1CC(O)=C(c2nc(-c3ccc(Cl)cc3)cs2)C1=N | 4.1 µM | 1.97 µM
Cc1cn2c(/C=C3/C(=O)N(C)c4ccccc43)c(C)nc2s1 | > 100 µM | 18.1 µM

tested on: OVCAR-3 ovarian; assay: NCI anticancer screen, dose series, 48 h

SMILES | GI50 | TGI
CN(C)CCCn1c2c(c3ccccc3c1=O)C(=O)c1ccccc1-2 | 1.67 µM | 6.79 µM
CN(C)CCNC(=O)c1cccc(C(=O)Nc2ccccc2)c1[N+](=O)[O-] |  | > 100 µM
NC(N)=NCCCn1c2c(c3ccccc3c1=O)C(=O)c1ccccc1-2 | 18.3 µM | 45.4 µM
CC(=O)OC1Oc2ccccc2-c2oc(=O)c(-c3cc4ccc(N(C)C)cc4oc3=O)cc21 (centres undefined) | 10.1 µM | 23.2 µM
CC1(C)C2CC(O)C1(C)CC2=O (centres undefined) |  | > 100 µM
COc1ccc2c(c1)C(=O)c1c-2n(CCCn2ccnc2)c(=O)c2ccccc12 | 0.901 µM | 
COc1cc2oc(-c3ccc(O)cc3)cc(=O)c2c(OC)c1OC |  | > 100 µM
O=C(CCl)Nc1ccc(Cl)cc1 | 1.88 µM | 3.62 µM
O=S(=O)(/N=S(/Nc1ccccc1)C(Cl)Cl)c1ccccc1 (centres undefined) |  | > 100 µM
Fc1cc(F)c(COc2cc(Cn3cnc4c(Cl)nc(Cl)nc43)ccc2C23CC4CC(CC(C4)C2)C3)cc1F | 15.6 µM | 30.2 µM
COc1ccc(N2C(=O)C3c4[nH]c5ccc(C)cc5c4C4CCC(C(C)(C)C)CC4C3C2=O)cc1 (centres undefined) |  | 32 µM
CC/C=C\C[C@@H]1C/C=C2/C(=O)C=C[C@H]2C/C=C\CCCC(=O)O1 | 0.428 µM | 1.38 µM
O=C(N/N=C/c1cccc(O)c1O)c1ccccc1 | 0.369 µM | > 100 µM
c1ccc(C2=NNC3c4ccccc4-c4ccccc4N3C2)cc1 (centres undefined) |  | > 100 µM
COc1ccc(OC)c(/C=C/C(=O)N/N=C/c2ccc(Cl)cc2)c1 | 0.0285 µM | 0.0875 µM
O=C1c2ccccc2-c2c1c1ccccc1c(=O)n2Cc1ccccc1 |  | > 100 µM
COc1ccc(C(=O)c2cc(C)c(OC)c(C)c2)c(OC)c1N(C(=O)C(Cl)Cl)C(=O)C(Cl)Cl | 0.0357 µM | 
CCN(CC)c1sc(N(CC)CC)c2c1SSSSS2 | 1.44 µM | 3.39 µM
O=C(c1cccc(O)c1O)c1cn(Cc2ccc(F)cc2)c2cccc(O)c12 | 3.27 µM | 18.1 µM
Nc1ncc(-c2cnn(CCO)c2)c2scc(-c3ccc(NC(=O)Nc4cccc(F)c4)cc3)c12 | 1.16 µM | 5.87 µM
COc1cc(C2=NN(C(C)=O)C(c3ccc(OC(C)=O)cc3OC(C)=O)O2)c(OC(C)=O)c2ccccc12 (centres undefined) | 0.402 µM | 13.9 µM
COC(=O)Nc1nc2ccc(Oc3ccc(NC(=O)Nc4ccccc4)cc3)cc2[nH]1 | 0.0713 µM | 0.205 µM
O=C1c2c(Br)sc(Br)c2C(NC(=O)C(F)(F)F)C1O (centres undefined) |  | 43.7 µM
CCOC(=O)c1cc(/C(=N\O)c2cc(OC)c(OC)c(OC)c2)n2cc(C)cc(C)c12 | 1.74 µM | 4.33 µM
CCN(CC)CCCC(C)Nc1c(C)cnc2cc(Cl)c(C)cc12 (centres undefined) | 10.1 µM | 27.4 µM
CC(=O)OC1CC(O)C23COC(O)C1(C)C2CC(O)C1(C)C3C(=O)C(O)C2(C)C(c3ccoc3)CC3OC321 (centres undefined) | 41.2 µM | > 100 µM
CCCCCCCC(CC(=O)NC(CO)C(=O)NC(CO)CC(C)C)OC(=O)CC(CCCCCCC)OC(=O)CC(CCCCCCC)OC1OC(C)C(O)C(OC2OC(C)C(O)C(OC(C)=O)C2O)C1O (centres undefined) |  | 23 µM
CCc1[nH]c(=O)nc(N)c1-c1ccc(N2CCCCC2)c([N+](=O)[O-])c1 |  | > 100 µM
